Experimental data: article PMC11093748, “De novo identification of CD4^+ T cell epitopes” (Nature Methods, 2024)

Assays:
Assay in all cases: I-Ag7 SABR-II library screen, enrichment score
Format in all cases: cell-based, mouse
BDC2.5 TCR = details: for Enrichment score: I-Ag7 library; for Enrichment score EXPT1 / Enrichment score EXPT2 / Enrichment score EXPT3 / Enrichment score EXPT5 / Enrichment score EXPT7 / Enrichment score EXPT8: sheet Fig 1F, whole library; for Enrichment score EXPT1: independent biological experiment 1 of 8; for Enrichment score EXPT2: independent biological experiment 2 of 8; for Enrichment score EXPT3: independent biological experiment 3 of 8; for Enrichment score EXPT5: independent biological experiment 5 of 8; for Enrichment score EXPT7: independent biological experiment 7 of 8; for Enrichment score EXPT8: independent biological experiment 8 of 8
Method in brief: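 NFAT–GFP Jurkat cells expressing an I-Ag7 SABR-II library of 4,075 islet-derived epitopes, CellTrace Violet-labelled, were co-incubated 16–20 h with equal numbers of TCR-expressing Jurkat cells. The top 1–2% GFP+CD69+ cells were sorted and epitopes sequenced, in triplicate. Enrichment score = measured minus expected abundance, from linear regression on unsorted library counts.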

TCR10B = details: TCR_Mean minus PREDICTED_TCR (from LIB_Mean, SLOPE 0.894516, INTERCEPT 2.58857e-5), PZ51
Text: (§1) We then asked whether SABR-IIs could be used to present a library of epitopes for CD4^+ T cell antigen discovery. To that end, we constructed a SABR-II library to present epitopes derived from pancreatic islets in I-Ag7 by curating a list of 4,075 published epitopes from the Immune Epitope Database (iedb.org)[50] and a study by Wan et al.[51] (Supplementary Table 1). Of note, this defined library consisted of unmodified epitopes from endogenous proteins, synthetic mimotopes, deamidated epitopes and hybrid insulin peptides (HIPs) that arise from post-translational fusion and are not genetically encoded in vivo[52],[53]. The epitope library was inserted into the I-Ag7 SABR-II backbone through pooled oligonucleotide synthesis, amplification and ligation-free cloning (Extended Data Fig. 3a). The I-Ag7 SABR-II-library was then expressed in NFAT–GFP Jurkat cells. We confirmed that after sequencing, the library accounted for a mean of 708 reads per epitope (Extended Data Fig. 3b). As a proof of concept, we performed co-incubation assays with Jurkat cells expressing the BDC2.5 TCR and sorted the top 1–2% of GFP^+CD69^+ cells at a rate of ~20 min per replicate with three replicates per TCR. We extracted the genomic DNA from sorted cells, amplified the SABR portion of the integrated proviruses and subjected the amplicons to Illumina sequencing (Extended Data Fig. 3c,d). The 1–2% sort gate represents >50-fold enrichment of cognate epitopes with minimal loss of signal (Extended Data Fig. 3e–h). Sequence reads were aligned to the I-Ag7 SABR-II backbone and the corresponding epitopes were scored based on their read counts. For each TCR under investigation, an enrichment score (ES) was determined for all the epitopes in a library. In each experiment, three replicates of a sort with TCR-expressing Jurkat cells were performed and reads were counted post-sequencing. In addition, three replicates of the unsorted library were also sequenced. A linear regression model was built using the unsorted library counts and used to determine the expected abundance of each epitope in the library. The ES was calculated based on the difference between the measured and the expected abundance of each epitope on a per-TCR basis (Fig. 1e). Based on ES values, two quantitative thresholds were used to determine putative cognate epitopes of a given TCR. A high-confidence zone containing clear outliers with a high ES and a low-confidence zone containing weak outliers with a moderately high ES were determined (Fig. 1e). This two-tiered strategy was used to call putative hits from screens. All the top-scoring epitopes for the BDC2.5 TCR were known BDC2.5 ligands containing the WXRM(D/E) motif (Fig. 1f,g, enriched ligands in red), a well-characterized trait of the BDC2.5 TCR[43],[54]–[56]. Across several independent experiments there was limited variation in ES values for the same TCRs and several epitopes fell into high- or low-confidence zones consistently (Extended Data Fig. 4a). Using a different TCR that was isolated from NOD mice, 4-8Ins[57], which recognized the InsB9:23 epitope ([…]), we observed a similar pattern of ES for cognate epitopes (Extended Data Fig. 4b).
(§2) We performed systematic screening of the cloned TCRs against the I-Ag7 SABR-II library. Several TCRs along with a positive control (such as BDC2.5 or 4-8Ins) were screened individually against the library for each sort (Extended Data Fig. 6a and Supplementary Table 4). High- and low-confidence ES zones for each screened TCR were defined by the ES values of the control TCR’s cognate epitopes. For all putative cognate epitopes, single SABR-IIs were constructed, expressed in NFAT–GFP Jurkat cells and used for co-incubation with the corresponding TCRs. Co-incubation assays that yielded a GFP signal higher than that obtained in assays with no TCR were determined to be positive and the epitopes deemed true cognate ligands (Extended Data Fig. 6b,c). […]

TCR18 = system: TCR18
Text: as §1, §2

TCR21B = details: TCR_Mean minus PREDICTED_TCR (slope 0.954708, intercept 1.11146e-5 on LIB_Mean), TCR 21B, run PZ56
Text: as §1, §2

TCR29 = details: TCR_Mean minus PREDICTED_TCR (slope 0.951614, intercept 1.18738e-5 on LIB_Mean), TCR 29, run PZ98
Text: as §1, §2

TCR32 = details: TCR_Mean minus PREDICTED_TCR (slope 0.962506, intercept 9.20103e-6 on LIB_Mean), TCR 32, run PZ98
Text: as §1, §2

TCR34 = details: TCR_Mean minus PREDICTED_TCR (slope 0.916696, intercept 2.04427e-5 on LIB_Mean), TCR 34, run PZ57
Text: as §1, §2

TCR3 = system: TCR3
Text: as §1, §2

TCR8 = details: TCR_Mean minus PREDICTED_TCR (from LIB_Mean, SLOPE 0.946603, INTERCEPT 1.31036e-5), PZ47
Text: as §1, §2

TCR9 = details: TCR_Mean minus PREDICTED_TCR (from LIB_Mean, SLOPE 0.950453, INTERCEPT 1.21587e-5), PZ47
Text: as §1, §2

[1] = EXPT1 of 8 biological experiments
[2] = one biological experiment (Ext. Data Fig. 6B)
[3] = I-Ag7 library, one biological experiment
[4] = TCR18, TCR_Mean minus PREDICTED_TCR (from LIB_Mean, SLOPE 0.92089, INTERCEPT 1.94136e-5), PZ52
[5] = sheet TCR3-PZ37, ES = TCRObserved - TCRPredicted, TCRPredicted = LIBObserved x SLOPE + INTERCEPT, SLOPE 0.907522, INTERCEPT 2.2694e-5

| Sequence | Enrichment score (BDC2.5 TCR; [1]) | Enrichment score (BDC2.5 TCR; EXPT2 of 8) | Enrichment score (BDC2.5 TCR; EXPT3 of 8) | Enrichment score (BDC2.5 TCR; EXPT4 of 8) | Enrichment score (BDC2.5 TCR; EXPT6 of 8) | Enrichment score (BDC2.5 TCR; EXPT7 of 8) | Enrichment score (BDC2.5 TCR; EXPT8 of 8) | Enrichment score (BDC2.5 TCR; [2]) | Enrichment score EXPT1 (BDC2.5 TCR) | Enrichment score EXPT2 (BDC2.5 TCR) | Enrichment score EXPT3 (BDC2.5 TCR) | Enrichment score EXPT5 (BDC2.5 TCR) | Enrichment score EXPT7 (BDC2.5 TCR) | Enrichment score EXPT8 (BDC2.5 TCR) | Enrichment score (TCR10B) | Enrichment score (TCR18; [3]) | Enrichment score (TCR18; [4]) | Enrichment score (TCR21B) | Enrichment score (TCR29) | Enrichment score (TCR32) | also measured |
| --- | --- | --- | --- | --- | --- | --- | --- | --- | --- | --- | --- | --- | --- | --- | --- | --- | --- | --- | --- | --- | --- |
| AAVEEGIVAGGGVTLL | -2.818e-5 | -9.793e-5 | 0.0001628 | -0.0001173 | 0.0001045 | -9.918e-5 | -0.0001409 | 0.0001628 | -9.793e-5 | -2.818e-5 | 0.0001628 | 9.606e-5 | -9.918e-5 | -0.0001409 | -7.785e-5 | -8.9534e-5 | -8.9534e-5 | -9.242e-5 | -4.805e-5 | 3.811e-5 | Enrichment score (TCR34): -0.0002018; Enrichment score (TCR3; [3]): -0.00015; Enrichment score (TCR3; [5]): -0.00015; Enrichment score (TCR8): -2.679e-5; Enrichment score (TCR9): -0.0001033 |
| AEKVRNLPAGHGLNAQ | 2.296e-5 | 1.2173e-5 | 6.168e-6 | 0.0002539 | -2.745e-5 | 9.062e-5 | 9.25e-5 | 6.168e-6 | 1.2173e-5 | 2.296e-5 | 6.168e-6 | 8.842e-5 | 9.062e-5 | 9.25e-5 | -0.0001336 | 0.0001149 | 0.0001149 | 8.732e-6 | -9.799e-5 | 4.971e-5 | Enrichment score (TCR34): 6.942e-5; Enrichment score (TCR3; [3]): -2.569e-5; Enrichment score (TCR3; [5]): -2.569e-5; Enrichment score (TCR8): -5.38e-5; Enrichment score (TCR9): 2.252e-5 |
| AGGVAVIKAGAATEV | -4.65e-5 | 5.397e-5 | 2.078e-5 | 2.834e-5 | -5.5015e-5 | -7.0061e-5 | -2.822e-5 | 2.078e-5 | 5.397e-5 | -4.65e-5 | 2.078e-5 | 9.8885e-5 | -7.0061e-5 | -2.822e-5 | 1.586e-6 | -7.134e-5 | -7.134e-5 | -9.6548e-5 | -4.862e-5 | 9.791e-5 | Enrichment score (TCR34): -0.0001037; Enrichment score (TCR3; [3]): -3.191e-5; Enrichment score (TCR3; [5]): -3.191e-5; Enrichment score (TCR8): -5.809e-5; Enrichment score (TCR9): -1.065e-5 |
| AKAAVEEGIVAGGGV | -0.0001132 | -8.351e-5 | -9.939e-5 | 5.807e-5 | 0.0001711 | 8.834e-6 | 1.023e-7 | -9.939e-5 | -8.351e-5 | -0.0001132 | -9.939e-5 | 0.0002581 | 8.834e-6 | 1.023e-7 | 7.202e-5 | -0.0001034 | -0.0001034 | -2.11e-5 | -1.352e-5 | -4.13e-5 | Enrichment score (TCR34): 3.575e-5; Enrichment score (TCR3; [3]): -0.0001294; Enrichment score (TCR3; [5]): -0.0001294; Enrichment score (TCR8): 4.499e-5; Enrichment score (TCR9): 0.0002844 |
